Experimental data from patent US20260078120A1, “SUBSTITUTED PYRIDOPYRIMIDINONES” (MIRATI THERAPEUTICS, INC., priority 2022, published 2026).

How the values were obtained:
[1] = tested on: T47D (PI3Kα H1047R mutant) cells; assay: CellTiter-Glo 2.0 luminescent cell viability assay, 72 hours, T47D cells; assay type: cell-based; details: Homo sapiens, T47D, 72 h, T47D (PI3Kα H1047R mutant) cells, CellTiter-Glo, approximately 72 hours; read-out: T47D (H1047R mutant) Viability IC50
In short: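 Cells seeded at 1000 per well overnight were dosed with a 10-concentration, 1:4 series starting at 10 µM and incubated ~72 h at 37° C. Viability was read by CellTiter-Glo 2.0 luminescence after 30 min at room temperature. IC50 came from four-parameter fits of percent vehicle control.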

[2] = tested on: SKBR3 (PI3Kα wild type) cells; assay: CellTiter-Glo 2.0 luminescent cell viability assay, 72 hours, SKBR3 cells; assay type: cell-based; details: Homo sapiens, SK-BR-3, 72 h, SKBR3 (PI3Kα wild type) cells, CellTiter-Glo, approximately 72 hours; read-out: SKBR3 (WT) Viability IC50
In short: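 Viability measured via CTG luminescence following roughly 72 hours of compound exposure at 37° C. Dosing used a 10 um starting concentration diluted 1:4 over 10 points; percent-of-vehicle data fitted with a variable-slope four-parameter model for IC50.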

Structure (SMILES) | IC50 [1] [nM] | IC50 [2] [nM]
Cc1cc([C@@H](C)Nc2ccccc2C(=O)O)c2nc(NCC(C)C)c(C#N)c(=O)n2c1 [Example 11-308, (R)-2-((1-(3-cyano-2-(isobutylamino)-7-methyl-4-oxo-4H-pyrido[1,2-a]pyrimidin-9-yl)ethyl)amino)benzoic acid] | 121 | > 10000
Cc1cc([C@@H](C)Nc2ccccc2C(=O)O)c2nc(-c3cnn(-c4ccc(C#N)cc4)c3)cc(=O)n2c1 [Example 11-240, (R)-2-((1-(2-(1-(4-cyanophenyl)-1H-pyrazol-4-yl)-7-methyl-4-oxo-4H-pyrido[1,2-a]pyrimidin-9-yl)ethyl)amino)benzoic acid] | 573 | 3230
Cc1cc([C@@H](C)Nc2ccccc2C(=O)O)c2nc(N3CC45COCC4(COC5)C3)c(C)c(=O)n2c1 (stereo partly drawn) [Example 10-148, 2-(((R)-1-(2-((3aS,6aS)-1H,3H,4H-3a,6a-(methanooxymethano)furo[3,4-c]pyrrol-5(6H)-yl)-3,7-dimethyl-4-oxo-4H-pyrido[1,2-a]pyrimidin-9-yl)ethyl)amino)benzoic acid] | 108 | > 10000
Cc1cc([C@@H](C)Nc2ccccc2C(=O)O)c2nc(NCC3(F)CC3)c(C#N)c(=O)n2c1 [Example 11-155, (R)-2-((1-(3-cyano-2-(((1-fluorocyclopropyl)methyl)amino)-7-methyl-4-oxo-4H-pyrido[1,2-a]pyrimidin-9-yl)ethyl)amino)benzoic acid] | 165 | > 10000
Cc1cc([C@@H](C)Nc2ccccc2C(=O)O)c2nc(NC[C@H]3CC3(F)F)c(C#N)c(=O)n2c1 [Example 11-156, 2-(((R)-1-(3-cyano-2-((((R)-2,2-difluorocyclopropyl)methyl)amino)-7-methyl-4-oxo-4H-pyrido[1,2-a]pyrimidin-9-yl)ethyl)amino)benzoic acid] | 174 | > 10000
Cc1cc(C(C)Nc2ccccc2P(C)(=O)O)c2nc(N3Cc4ccccc4C3)cc(=O)n2c1 (centres unmarked) [Example 11-333, (2-((1-(2-(isoindolin-2-yl)-7-methyl-4-oxo-4H-pyrido[1,2-a]pyrimidin-9-yl)ethyl)amino)phenyl)(methyl) phosphinic acid] | > 10000 | > 10000
Cc1cc([C@@H](C)Nc2ccccc2C(=O)O)c2nc(N3CC4(CN(c5ccc(C#N)cc5)C4)C3)c(C#N)c(=O)n2c1 [Example 11-190, (R)-2-((1-(3-cyano-2-(6-(4-cyanophenyl)-2,6-diazaspiro[3.3]heptan-2-yl)-7-methyl-4-oxo-4H-pyrido[1,2-a]pyrimidin-9-yl)ethyl)amino)benzoic acid] | 1110 | > 10000
Cc1cc([C@@H](C)Nc2ccccc2C(=O)O)c2nc(-c3cn(-c4ccc(C#N)cc4)cn3)cc(=O)n2c1 [Example 11-237, (R)-2-((1-(2-(1-(4-cyanophenyl)-1H-imidazol-4-yl)-7-methyl-4-oxo-4H-pyrido[1,2-a]pyrimidin-9-yl)ethyl)amino)benzoic acid] | 1410 | > 10000
Cc1cc([C@@H](C)Nc2ccc(Cl)nc2C(=O)O)c2nc(N3CCN(c4ccc(C#N)cc4C)CC3)c(C#N)c(=O)n2c1 [Example 11-132, (R)-6-chloro-3-((1-(3-cyano-2-(4-(4-cyano-2-methylphenyl)piperazin-1-yl)-7-methyl-4-oxo-4H-pyrido[1,2-a]pyrimidin-9-yl)ethyl)amino)picolinic acid] | 172 | > 10000
Cc1cc([C@@H](C)Nc2ccccc2C(=O)O)c2nc(N[C@H](C)C3CC3)c(C)c(=O)n2c1 [Example 11-167, 2-(((R)-1-(2-(((R)-1-cyclopropylethyl)amino)-3,7-dimethyl-4-oxo-4H-pyrido[1,2-a]pyrimidin-9-yl)ethyl)amino)benzoic acid] | 1180 | > 10000
Cc1cc(C(C)Nc2ccccc2C(=O)O)c2nc(N3CCN(c4ccc(CN)cc4)CC3)cc(=O)n2c1 (centres unmarked) [Example 11-257, 2-((1-(2-(4-(4-(aminomethyl)phenyl)piperazin-1-yl)-7-methyl-4-oxo-4H-pyrido[1,2-a]pyrimidin-9-yl)ethyl)amino)benzoic acid] | 9520 | > 10000

Further lines, results first:

IC50 [1] [nM] | IC50 [2] [nM] | Structure (SMILES)
403 | > 10000 | Cc1cc([C@@H](C)Nc2ccccc2C(=O)O)c2nc(N3CCn4nccc4C3)c(C)c(=O)n2c1 [Example 11-431, (R)-2-((1-(2-(6,7-dihydropyrazolo[1,5-a]pyrazin-5(4H)-yl)-3,7-dimethyl-4-oxo-4H-pyrido[1,2-a]pyrimidin-9-yl)ethyl)amino)benzoic acid]
342 | > 10000 | Cc1cc([C@@H](C)Nc2ccccc2C(=O)O)c2nc(N3CCN(C4CC4)CC3)c(C#N)c(=O)n2c1 [Example 11-150, (R)-2-((1-(3-cyano-2-(4-cyclopropylpiperazin-1-yl)-7-methyl-4-oxo-4H-pyrido[1,2-a]pyrimidin-9-yl)ethyl)amino)benzoic acid]
239 | > 10000 | Cc1cc([C@@H](C)Nc2ccccc2C(=O)O)c2nc(N3CC(c4cccnc4)C3)c(C)c(=O)n2c1 [Example 11-21, (R)-2-((1-(3,7-dimethyl-4-oxo-2-(3-(pyridin-3-yl)azetidin-1-yl)-4H-pyrido[1,2-a]pyrimidin-9-yl)ethyl)amino)benzoic acid]
330 | > 10000 | Cc1cc([C@@H](C)Nc2ccccc2C(=O)O)c2nc(N3CCN(c4ccc(C(F)(F)F)cc4C#N)C[C@@H]3C)c(C)c(=O)n2c1 [Example 11-80, 2-(((R)-1-(2-((S)-4-(2-cyano-4-(trifluoromethyl)phenyl)-2-methylpiperazin-1-yl)-3,7-dimethyl-4-oxo-4H-pyrido[1,2-a]pyrimidin-9-yl)ethyl)amino)benzoic acid]
132 | > 10000 | Cc1cc([C@@H](C)Nc2ccccc2C(=O)O)c2nc(N3C[C@H](C)C(F)(F)C3)c(C)c(=O)n2c1 [Example 11-119, 2-(((R)-1-(2-((S)-3,3-difluoro-4-methylpyrrolidin-1-yl)-3,7-dimethyl-4-oxo-4H-pyrido[1,2-a]pyrimidin-9-yl)ethyl)amino)benzoic acid]
285 | > 10000 | Cc1cc([C@@H](C)Nc2ccccc2C(=O)O)c2nc(N3CCC(F)(F)[C@H]3C)c(C)c(=O)n2c1 [Example 11-123, 2-(((R)-1-(2-((R)-3,3-difluoro-2-methylpyrrolidin-1-yl)-3,7-dimethyl-4-oxo-4H-pyrido[1,2-a]pyrimidin-9-yl)ethyl)amino)benzoic acid]
657 | > 10000 | Cc1cc([C@@H](C)Nc2ccccc2C(=O)O)c2nc(N[C@H](C3CC3)C(F)(F)F)c(C#N)c(=O)n2c1 [Example 11-160, 2-(((R)-1-(3-cyano-2-(((R)-1-cyclopropyl-2,2,2-trifluoroethyl)amino)-7-methyl-4-oxo-4H-pyrido[1,2-a]pyrimidin-9-yl)ethyl)amino)benzoic acid]
309 | > 10000 | Cc1cc([C@@H](C)Nc2ccccc2C(=O)O)c2nc(N3CC[C@H]3C(F)(F)F)c(C)c(=O)n2c1 [Example 11-97, 2-(((R)-1-(3,7-dimethyl-4-oxo-2-((S)-2-(trifluoromethyl)azetidin-1-yl)-4H-pyrido[1,2-a]pyrimidin-9-yl)ethyl)amino)benzoic acid]
249 | > 10000 | Cc1cc([C@@H](C)Nc2ccccc2C(=O)O)c2nc(N3CC(F)C3)c(C#N)c(=O)n2c1 [Example 11-113, (R)-2-((1-(3-cyano-2-(3-fluoroazetidin-1-yl)-7-methyl-4-oxo-4H-pyrido[1,2-a]pyrimidin-9-yl)ethyl)amino)benzoic acid]
416 | > 10000 | Cc1cc([C@@H](C)Nc2ccccc2C(=O)O)c2nc(N3CC(c4ccccc4)C3)c(C)c(=O)n2c1 [Example 11-18, (R)-2-((1-(3,7-dimethyl-4-oxo-2-(3-phenylazetidin-1-yl)-4H-pyrido[1,2-a]pyrimidin-9-yl)ethyl)amino)benzoic acid]
401 | > 10000 | Cc1cc([C@@H](C)Nc2ccccc2C(=O)O)c2nc(N3CC4CCC3CC4O)c(C)c(=O)n2c1 (stereo partly drawn) [Example 11-30, 2-(((1R)-1-(2-(5-hydroxy-2-azabicyclo[2.2.2]octan-2-yl)-3,7-dimethyl-4-oxo-4H-pyrido[1,2-a]pyrimidin-9-yl)ethyl)amino)benzoic acid]
520 | > 10000 | Cc1cc([C@@H](C)Nc2ccccc2C(=O)O)c2nc(N3CCC[C@@H](C(F)(F)F)C3)c(C)c(=O)n2c1 [Example 11-211, 2-(((R)-1-(3,7-dimethyl-4-oxo-2-((R)-3-(trifluoromethyl)piperidin-1-yl)-4H-pyrido[1,2-a]pyrimidin-9-yl)ethyl)amino)benzoic acid]
3820 | > 10000 | Cc1cc([C@@H](C)Nc2ccccc2C(=O)O)c2nc(N3CCCC(O)C3)c(C#N)c(=O)n2c1 (stereo partly drawn) [Example 11-324, 2-(((1R)-1-(3-cyano-2-(3-hydroxypiperidin-1-yl)-7-methyl-4-oxo-4H-pyrido[1,2-a]pyrimidin-9-yl)ethyl)amino)benzoic acid]
264 | > 10000 | Cc1cc([C@@H](C)Nc2ccccc2C(=O)O)c2nc(N3CCC4(CCO4)CC3)c(C)c(=O)n2c1 [Example 11-56, (R)-2-((1-(3,7-dimethyl-4-oxo-2-(1-oxa-7-azaspiro[3.5]nonan-7-yl)-4H-pyrido[1,2-a]pyrimidin-9-yl)ethyl)amino)benzoic acid]
